Data on 20 molecules can be found in patent US20090264426A1, “Bicyclic aromatic substituted pyridone derivative” (priority 2005, published 2009).

The target of this assay is T1, human MCH-1R (Homo sapiens, UniProt Q99705).
T1 construct: expressed in transfected cells; host or cells: CHO-K1
T1 sequence (Q99705 whole entry): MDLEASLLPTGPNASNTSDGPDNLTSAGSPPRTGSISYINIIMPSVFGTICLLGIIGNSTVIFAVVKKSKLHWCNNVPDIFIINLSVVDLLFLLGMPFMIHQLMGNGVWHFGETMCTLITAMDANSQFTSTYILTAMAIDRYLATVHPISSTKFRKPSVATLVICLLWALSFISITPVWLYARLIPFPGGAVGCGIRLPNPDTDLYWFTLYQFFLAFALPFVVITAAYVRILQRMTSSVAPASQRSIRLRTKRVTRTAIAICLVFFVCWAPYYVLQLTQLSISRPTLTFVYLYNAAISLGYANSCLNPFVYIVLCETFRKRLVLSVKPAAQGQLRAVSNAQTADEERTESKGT
Kind of assay: MCH binding inhibition test. The note with it: 50% inhibition of specific [125I]MCH (50 pM) binding; membranes of MCH-1R expressing CHO-K1 cells; 25° C., 1 hour, pH 7.4. How it is done:
A human MCH-1R encoding cDNA sequence [FEBS Letters, Vol. 398, 253 (1996); Biochimica et Biophisica Acta, Vol. 1401, 216 (1998)] was cloned to a plasmid vector pEF/myc/cyto (Invitrogen Corporation). The obtained expression vector was transfected to host cells CHO-K1 (American Type Culture Collection) using Lipofectamine Plus Reagent (Life Technology Inc.) to provide MCH-1R expression cells.
Membrane samples prepared from the MCH-1R expression cells were incubated with each test compound and 50 pM of [^125I]MCH (NEN Co.), in an assay buffer (50 mM Tris buffer comprising 10 mM magnesium chloride, 2 mM ethylenediamine tetraacetate, 0.01% bacitracin and 0.2% bovine serum albumin; pH 7.4) at 25° C. for an hour, followed by filtration through a glass filter GF/C (Wattman Co.). After washing the glass filter with 50 mM Tris buffer (pH 7.4) comprising 10 mM magnesium chloride, 2 mM ethylenediamine tetraacetate and 0.04% Tween-20, the radioactive activity on the glass filter was measured. The non-specific binding was measured in the presence of 1 μM human MCH and 50% inhibition concentration (IC50 value) of each test compound to the specific [^125I]MCH binding was determined.
Broadly, the IC50 is the point on the concentration scale where inhibition reaches its midpoint. Low values mean greater potency, high ones weaker potency. The molecule `O=c1cc(OCc2ccc(Cl)cn2)ccn1-c1ccc2nc(CN3CCC3)ccc2c1` [Example 30, 1-[2-(Azetidin-1-ylmethyl)quinolin-6-yl]-4-[(5-chloropyridin-2-yl)methoxy]pyridin-2(1H)-one] came in with a half-inhibitory concentration (IC50) of 5.9 nM.

In turn, `O=c1cc(OCc2ccc(F)cc2)ccn1-c1ccc2cc(CN3CCC3)ncc2c1` [Example 99, 1-[3-(Azetidin-1-ylmethyl)isoquinolin-7-yl]-4-[(4-fluorobenzyl)oxy]pyridin-2(1H)-one] had an IC50 of 6 nM.

`CCCNCCc1ccc2cc(-n3ccc(OCc4ccccc4)cc3=O)ccc2n1` [Example 76, 4-(Benzyloxy)-1-{2-[2-(propylamino)ethyl]quinolin-6-yl}pyridin-2(1H)-one] came in with an IC50 of 2.9 nM.

With `CCNCc1ccc2cc(-n3ccc(OCc4ccc(F)cc4)cc3=O)ccc2n1` [Example 23, 1-{2-[(Ethylamino)methyl]quinolin-6-yl}-4-[(4-fluorobenzyl)oxy]pyridin-2(1H)-one], the IC50 is 6.2 nM.

Turning to `O=c1cc(OCc2ccc(F)cc2)ccn1-c1ccc2nc(CN3CCC3)ccc2n1` [Example 95, 1-[6-(Azetidin-1-ylmethyl)-1,5-naphthyridin-2-yl]-4-[(4-fluorobenzyl)oxy]pyridin-2(1H)-one], the IC50 worked out at 23 nM.

As for `CCCNCc1ccc2cc(-n3ccc(OCc4ccc(Cl)cn4)cc3=O)ccc2n1` [Example 40, 4-[(5-Chloropyridin-2-yl)methoxy]-1-{2-[(propylamino)methyl]quinolin-6-yl}pyridin-2(1H)-one], the concentration for half-maximal inhibition (IC50) stood at 5.2 nM.

`O=c1cc(/C=C/c2ccc(Cl)cn2)ccn1-c1ccc2nc(OCCN3CCCC3)cnc2c1` [Example 57, 4-[(E)-2-(5-chloropyridin-2-yl)vinyl]-1-[2-(2-pyrrolidin-1-ylethoxy)quinoxalin-6-yl]pyridin-2(1H)-one] showed a half-inhibitory concentration (IC50) of 10.1 nM.

Take `O=c1cc(OCc2ccc(Cl)cn2)ccn1-c1ccc2nc(OCCCN3CCCC3)ccc2c1` [Example 20, 4-[(5-Chloropyridin-2-yl)methoxy]-1-[2-(3-pyrrolidin-1-ylpropoxy)quinolin-6-yl]pyridin-2(1H)-one]: the IC50 is 7.8 nM.

Molecule `O=c1cc(OCc2ccc(Cl)cn2)ccn1-c1ccc2nc(OCCN3CCCC3)ccc2c1` [Example 8, 4-[(5-Chloropyridin-2-yl)methoxy]-1-[2-(2-pyrrolidin-1-ylethoxy)quinolin-6-yl]pyridin-2(1H)-one] returned an IC50 of 6.4 nM.

The molecule `O=c1cc(OCc2ccccc2)ccn1-c1ccc2cc(OCCN3CCCC3)ccc2c1` [Example 38, 4-(Benzyloxy)-1-[6-(2-pyrrolidin-1-ylethoxy)-2-naphthyl]pyridin-2(1H)-one] showed an IC50 of 3.1 nM.

With `CNCc1ccc2cc(-n3ccc(OCc4ccc(Cl)cc4)cc3=O)ccc2n1` [Example 35, 4-[(4-Chlorobenzyl)oxy]-1-{2-[(methylamino)methyl]quinolin-6-yl}pyridin-2(1H)-one], the half-inhibitory concentration (IC50) turned out to be 2.2 nM.

Take `O=c1cc(OCc2ccc(F)cc2)ccn1-c1ccc2cc(CN3CCC3)cnc2c1` [Example 98, 1-[3-(Azetidin-1-ylmethyl)quinolin-7-yl]-4-[(4-fluorobenzyl)oxy]pyridin-2(1H)-one]: the IC50 came out at 9.6 nM.

The molecule `O=c1cc(OCc2ccc(F)cc2)ccn1-c1ccc2oc(CN3CCCCCC3)cc2c1` [Example 89, 1-[2-(Azepan-1-ylmethyl)-1-benzofuran-5-yl]-4-[(4-fluorobenzyl)oxy]pyridin-2(1H)-one] came in with an IC50 of 19 nM.

On to `O=c1cc(OCc2ccccc2)ccn1-c1ccc2cc(CN3CCC3)ccc2n1` [Example 28, 1-[6-(Azetidin-1-ylmethyl)quinolin-2-yl]-4-(benzyloxy)pyridin-2(1H)-one], for which the IC50 came to 7.6 nM.

In turn, `Cc1c(CCCN2CCCC2)nc2ccc(-n3ccc(OCc4ccc(Cl)cn4)cc3=O)cn12` [Example 63, 4-[(5-Chloropyridin-2-yl)methoxy]-1-[3-methyl-2-(3-pyrrolidin-1-ylpropyl)imidazo[1,2-a]pyridin-6-yl]pyridin-2(1H)-one] registered an IC50 of 22 nM.

Molecule `Cn1c(CCCN2CCCC2)nc2ccc(-n3ccc(OCc4ccc(Cl)cc4)cc3=O)cc21` [Example 65, 4-[(4-Chlorobenzyl)oxy]-1-[1-methyl-2-(3-pyrrolidin-1-ylpropyl)-1H-benzimidazol-6-yl]pyridin-2(1H)-one] returned a 50% inhibitory concentration (IC50) of 5.1 nM.

The molecule `Cn1c(CN2CCCC2)cc2ccc(-n3ccc(OCc4ccc(Cl)cn4)cc3=O)cc21` [Example 70, 4-[(5-Chloropyridin-2-yl)methoxy]-1-[1-methyl-2-(pyrrolidin-1-ylmethyl)-1H-indol-6-yl]pyridin-2(1H)-one] had a half-inhibitory concentration (IC50) of 11 nM.

`O=c1cc(OCc2ccccc2)ccn1-c1ccc2cn(CCN3CCCC3)nc2c1` [Example 27, 4-(Benzyloxy)-1-[2-(2-pyrrolidin-1-ylethyl)-2H-indazol-6-yl]pyridin-2(1H)-one] displayed a concentration for half-maximal inhibition (IC50) of 80 nM.

`CC(C)N(C)c1nc2ccc(-n3ccc(OCCOc4ccc(F)cc4)cc3=O)cc2[nH]1` [Example 90, 4-[2-(4-fluorophenoxy)ethoxy]-1-{2-[isopropyl(methyl)amino]-1H-benzimidazol-6-yl}pyridin-2(1H)-one]: the IC50 was found to be 9.8 nM.

For `O=c1cc(OCc2ccc(F)cc2)ccn1OCc1ccc2nc(CN3CCCC3)ccc2c1` [Example 94, 4-[(4-Fluorobenzyl)oxy]-1-{[2-(pyrrolidin-1-ylmethyl)quinolin-6-yl]methoxy}pyridin-2(1H)-one], the IC50 stood at 10.5 nM.
